This note sets out measurements from US20250011298A1, “CRYSTALLINE FORMS OF A CDK9 INHIBITOR AND USES THEREOF” (PRELUDE THERAPEUTICS INCORPORATED, priority 2021, published 2025).

The data set in a line: Thermogravimetric analysis (TGA) of crystalline forms. The settings on record: TGA thermogram; ramp from 25° C. to 600° C. at 20° C./min, nitrogen purge. In kind it is physicochemical. As to the method:
Crystalline forms of the compound of Formula I were analyzed using a TA Instruments Thermogravimetric Analyzer, TGA Q500 with autosampler. The general experimental conditions for TGA were ramp from 25° C. 600° C. at 20° C./min; nitrogen purge, gas flow at 25 mL/min; platinum sample pan.

Some results are limits rather than exact numbers.

As to `Cc1cnc(NC(=O)[C@H]2CCC[C@@H](NC(=O)CC#N)C2)cc1-c1cc(F)c2ncn(C(C)C)c2c1` [Form I], the “TGA: degradation occurring after” value is above 176 °C. The figure for `Cc1cnc(NC(=O)[C@H]2CCC[C@@H](NC(=O)CC#N)C2)cc1-c1cc(F)c2ncn(C(C)C)c2c1` [Form II] is above 176 °C.
